# Experimental data published in PubChem BioAssay AID1259407 (Chemical Carcinogenesis Research Information System (CCRIS), 2018).
# The source made the active and inactive calls. No rule for the calls is given here.
# System: CCRIS mutagenicity, Ames/micronucleus/aberration tests
# Assay: CCRIS mutagenicity studies
smiles,measurement,setting,value
c1ccc2c(c1)-c1ccc3ccccc3c1C1NC21 (configuration not stated),mutagenic call,"Test System: AMES SALMONELLA TYPHIMURIUM, Strain/Indicator: TA98, Metabolic Activation: NONE, Method: PREINCUBATION (KCL-CONTAINING OR KCL-FREE MEDIA)",active; positive
same,mutagenic call,"Test System: AMES SALMONELLA TYPHIMURIUM, Strain/Indicator: TA100, Metabolic Activation: NONE, Method: PREINCUBATION (KCL-CONTAINING MEDIUM)",active; positive
same,mutagenic call,"Test System: AMES SALMONELLA TYPHIMURIUM, Strain/Indicator: TA100, Metabolic Activation: NONE, Method: PREINCUBATION (KCL-FREE MEDIUM)",active; positive
CCCCNNCCCC,mutagenic call,"Test System: AMES SALMONELLA TYPHIMURIUM, Strain/Indicator: TA100, Metabolic Activation: NONE, Method: PREINCUBATION (11 HR GROWTH PERIOD FOR BACTERIA)",active; positive
same,mutagenic call,"Test System: AMES SALMONELLA TYPHIMURIUM, Strain/Indicator: TA100, Metabolic Activation: RAT, LIVER, S-9, PCB, Method: PREINCUBATION (11 HR GROWTH PERIOD FOR BACTERIA)",inactive; negative
same,mutagenic call,"Test System: AMES SALMONELLA TYPHIMURIUM, Strain/Indicator: TA102, Metabolic Activation: NONE, Method: PREINCUBATION (5 OR 7 HR GROWTH PERIOD FOR BACTERIA)",active; positive
same,mutagenic call,"Test System: AMES SALMONELLA TYPHIMURIUM, Strain/Indicator: TA102, Metabolic Activation: RAT, LIVER, S-9, PCB, Method: PREINCUBATION (5 OR 7 HR GROWTH PERIOD FOR BACTERIA)",active; positive
O=C(OCC1CCC2OC2C1)C1CCC2OC2C1 (configuration not stated),mutagenic call,"Test System: AMES SALMONELLA TYPHIMURIUM, Strain/Indicator: TA97A, Metabolic Activation: NONE, Method: STANDARD PLATE",inactive; negative
same,mutagenic call,"Test System: AMES SALMONELLA TYPHIMURIUM, Strain/Indicator: TA97A, Metabolic Activation: RAT LIVER S-9, PHENOBARBITAL AND BETA-NAPHTHOFLAVONE (10%), Method: STANDARD PLATE",inactive; negative
same,mutagenic call,"Test System: AMES SALMONELLA TYPHIMURIUM, Strain/Indicator: TA98, Metabolic Activation: NONE, Method: STANDARD PLATE",inactive; negative
same,mutagenic call,"Test System: AMES SALMONELLA TYPHIMURIUM, Strain/Indicator: TA98, Metabolic Activation: RAT LIVER S-9, PHENOBARBITAL AND BETA-NAPHTHOFLAVONE (10%), Method: STANDARD PLATE",inactive; negative
same,mutagenic call,"Test System: AMES SALMONELLA TYPHIMURIUM, Strain/Indicator: TA100, Metabolic Activation: NONE, Method: STANDARD PLATE",inactive; negative
same,mutagenic call,"Test System: AMES SALMONELLA TYPHIMURIUM, Strain/Indicator: TA100, Metabolic Activation: RAT LIVER S-9, PHENOBARBITAL AND BETA-NAPHTHOFLAVONE (10%), Method: STANDARD PLATE",active; positive
same,mutagenic call,"Test System: AMES SALMONELLA TYPHIMURIUM, Strain/Indicator: TA102, Metabolic Activation: NONE, Method: STANDARD PLATE",inactive; negative
same,mutagenic call,"Test System: AMES SALMONELLA TYPHIMURIUM, Strain/Indicator: TA102, Metabolic Activation: RAT LIVER S-9, PHENOBARBITAL AND BETA-NAPHTHOFLAVONE (10%), Method: STANDARD PLATE",inactive; negative
O=C(ON=C1C=CC(=NOC(=O)c2ccccc2)C=C1)c1ccccc1,mutagenic call,"End Point: IN VITRO CHROMOSOMAL ABERRATIONS, Test System: CHL CELLS, Metabolic Activation: RAT, LIVER, S-9, SODIUM PHENOBARBITAL AND 5,6-BENZOFLAVONE",inactive; negative
same,mutagenic call,"Test System: AMES SALMONELLA TYPHIMURIUM, Strain/Indicator: TA98, Metabolic Activation: NONE, Method: PREINCUBATION",active; positive
same,mutagenic call,"Test System: AMES SALMONELLA TYPHIMURIUM, Strain/Indicator: TA98, Metabolic Activation: RAT LIVER S-9, PHENOBARBITAL AND BETA-NAPHTHOFLAVONE, Method: PREINCUBATION",active; positive
same,mutagenic call,"Test System: AMES SALMONELLA TYPHIMURIUM, Strain/Indicator: TA100, Metabolic Activation: NONE, Method: PREINCUBATION",inactive; negative
same,mutagenic call,"Test System: AMES SALMONELLA TYPHIMURIUM, Strain/Indicator: TA100, Metabolic Activation: RAT LIVER S-9, PHENOBARBITAL AND BETA-NAPHTHOFLAVONE, Method: PREINCUBATION",active; positive
same,mutagenic call,"Test System: AMES SALMONELLA TYPHIMURIUM, Strain/Indicator: TA1535, Metabolic Activation: NONE, Method: PREINCUBATION",inactive; negative
same,mutagenic call,"Test System: AMES SALMONELLA TYPHIMURIUM, Strain/Indicator: TA1535, Metabolic Activation: RAT LIVER S-9, PHENOBARBITAL AND BETA-NAPHTHOFLAVONE, Method: PREINCUBATION",inactive; negative
same,mutagenic call,"Test System: AMES SALMONELLA TYPHIMURIUM, Strain/Indicator: TA1537, Metabolic Activation: NONE, Method: PREINCUBATION",inactive; negative
same,mutagenic call,"Test System: AMES SALMONELLA TYPHIMURIUM, Strain/Indicator: TA1537, Metabolic Activation: RAT LIVER S-9, PHENOBARBITAL AND BETA-NAPHTHOFLAVONE, Method: PREINCUBATION",active; positive
same,mutagenic call,"Test System: AMES SALMONELLA TYPHIMURIUM, Strain/Indicator: TA1538, Metabolic Activation: NONE, Method: PREINCUBATION",active; positive
same,mutagenic call,"Test System: AMES SALMONELLA TYPHIMURIUM, Strain/Indicator: TA1538, Metabolic Activation: RAT LIVER S-9, PHENOBARBITAL AND BETA-NAPHTHOFLAVONE, Method: PREINCUBATION",active; positive
same,mutagenic call,"Test System: E.COLI, Strain/Indicator: WP2UVRA, Metabolic Activation: NONE, Method: PREINCUBATION",inactive; negative
same,mutagenic call,"Test System: E.COLI, Strain/Indicator: WP2UVRA, Metabolic Activation: RAT LIVER S-9, PHENOBARBITAL AND BETA-NAPHTHOFLAVONE, Method: PREINCUBATION",inactive; negative
Nc1cc2ccccc2c2ccccc12,mutagenic call,"Test System: AMES SALMONELLA TYPHIMURIUM, Strain/Indicator: TA98, Metabolic Activation: RAT, LIVER, S-9, AROCLOR 1254 (2 OR 4%), Method: STANDARD PLATE",active; positive
same,mutagenic call,"Test System: AMES SALMONELLA TYPHIMURIUM, Strain/Indicator: TA100, Metabolic Activation: RAT, LIVER, S-9, AROCLOR 1254 (4%), Method: STANDARD PLATE",active; positive
same,mutagenic call,"Test System: AMES SALMONELLA TYPHIMURIUM, Strain/Indicator: TA1535, Metabolic Activation: RAT, LIVER, S-9, AROCLOR 1254 (4%), Method: STANDARD PLATE",active; positive
same,mutagenic call,"Test System: AMES SALMONELLA TYPHIMURIUM, Strain/Indicator: TA1537, Metabolic Activation: RAT, LIVER, S-9, AROCLOR 1254 (4%), Method: STANDARD PLATE",active; positive
